For six molecules, Ki and Activity results are on record in ChEMBL document CHEMBL4043081, “Do spiroindolines have the potential to replace vesamicol as lead compound for the development of radioligands targeting the vesicular acetylcholine transporter?” (Bioorg Med Chem, 2017).

As usually defined, the Ki is the dissociation constant of the complex between target and ligand, obtained from inhibition or displacement. High values mean a looser hold on the target, low ones a stronger hold on the target.

The source made the active and inactive calls. No cut-off for these calls is given here. Where only a bound is given, the exact number is not on record here.

The target of assay [1] is T1, Vesicular acetylcholine transporter (Rattus norvegicus, UniProt Q62666).
T1 sequence (Q62666 whole entry): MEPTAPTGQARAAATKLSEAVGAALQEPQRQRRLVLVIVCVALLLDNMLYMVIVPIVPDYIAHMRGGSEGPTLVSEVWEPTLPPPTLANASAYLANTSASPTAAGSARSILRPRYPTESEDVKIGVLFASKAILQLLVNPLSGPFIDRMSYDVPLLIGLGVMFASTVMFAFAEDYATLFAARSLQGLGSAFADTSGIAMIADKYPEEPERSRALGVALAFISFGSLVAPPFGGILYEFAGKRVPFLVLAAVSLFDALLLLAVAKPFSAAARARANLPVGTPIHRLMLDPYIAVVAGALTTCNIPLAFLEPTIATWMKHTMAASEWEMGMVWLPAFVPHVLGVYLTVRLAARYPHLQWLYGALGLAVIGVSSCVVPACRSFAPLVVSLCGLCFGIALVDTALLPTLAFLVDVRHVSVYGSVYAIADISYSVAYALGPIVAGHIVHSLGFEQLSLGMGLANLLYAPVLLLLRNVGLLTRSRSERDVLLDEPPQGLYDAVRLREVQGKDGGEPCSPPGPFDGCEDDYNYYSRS
Kind of assay: Displacement of [3H]vesamicol from rat VAChT expressed in rat PC12 cell membranes incubated for 120 mins by liquid scintillation counting. Background: In a radioligand displacement assay an active substance lowers the binding of a labelled ligand.

The target in assay [2] is Sigma non-opioid intracellular receptor 1 (Rattus norvegicus, UniProt Q9R0C9). Description: Displacement of [3H]pentazocine from sigma1 receptor in Sprague-Dawley rat cortex membranes incubated for 120 mins by liquid scintillation counting. It is filed as cell membranes.
For assay [3], the target named is T2, Sigma intracellular receptor 2 (Rattus norvegicus, UniProt Q5U3Y7).
T2 sequence (Q5U3Y7 whole entry): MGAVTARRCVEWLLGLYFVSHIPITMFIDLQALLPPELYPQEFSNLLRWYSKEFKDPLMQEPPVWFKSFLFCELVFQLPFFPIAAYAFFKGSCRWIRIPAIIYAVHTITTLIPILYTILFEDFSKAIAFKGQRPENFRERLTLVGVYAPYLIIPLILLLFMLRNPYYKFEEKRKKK
Description: Displacement of [3H]pentazocine from sigma2 receptor in Sprague-Dawley rat liver membranes incubated for 120 mins by liquid scintillation counting. It counts as cell membranes, Membrane.

Assay [4] concerns the target T3, Vesicular acetylcholine transporter (Rattus norvegicus) (UniProt Q62666).
T3 sequence (whole entry): T1 sequence (Q62666 whole entry)
Description: Binding affinity to rat VAChT expressed in rat PC12 cell membranes assessed as induction of rightward shift of vesamicol binding curves at 100 and 100 nM incubated for 120 mins by liquid scintillation counting based [3H]vesamicol binding assay.

Sigma non-opioid intracellular receptor 1, sequence (Q9R0C9 whole entry): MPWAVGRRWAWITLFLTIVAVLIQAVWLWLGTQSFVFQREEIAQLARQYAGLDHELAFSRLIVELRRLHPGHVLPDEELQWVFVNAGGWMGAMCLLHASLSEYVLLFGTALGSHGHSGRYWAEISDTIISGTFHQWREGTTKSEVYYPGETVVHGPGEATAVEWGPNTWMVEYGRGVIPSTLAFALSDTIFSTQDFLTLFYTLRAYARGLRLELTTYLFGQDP

With `O=C(c1ccnc(F)c1)N1CC2(CCN(C/C=C/c3ccc(Cl)cc3)CC2)c2cc(F)ccc21`, the Ki in assay [1] came out at 110 nM; in assay [2], 55.4 nM; in assay [3], 748 nM.
As to `O=C(c1ccc(Br)nc1)N1CC2(CCN(C/C=C/c3ccc(Cl)cc3)CC2)c2cc(F)ccc21`, the Ki is 39.2 nM in assay [1], 179 nM in assay [2] and 60.1 nM in assay [3].
Taken in the same sequence, the figures for `O=C(c1ccc(F)nc1)N1CC2(CCN(C/C=C/c3ccc(Cl)cc3)CC2)c2cc(F)ccc21` were 376 nM, 282 nM and above 10000 nM.
On the same counts, the results for `O=C(OCCF)N1CC2(CCN(C/C=C/c3ccc(Cl)cc3)CC2)c2cc(F)ccc21` are 328 nM, 44.1 nM and 1520 nM.
For `O=C(c1ccnc(Cl)c1)N1CC2(CCN(C/C=C/c3ccc(Cl)cc3)CC2)c2cc(F)ccc21`, the inhibition constant (Ki) in assay [1] is 153 nM; in assay [2] it was 137 nM; in assay [3] it was 1190 nM. Also, in assay [4], the outcome was Active.
`O=C(c1ccc(F)cc1)N1CC2(CCN(C/C=C/c3ccc(Cl)cc3)CC2)c2cc(F)ccc21`: the Ki worked out at 243 nM in assay [1], 293 nM in assay [2] and 1200 nM in assay [3].
